Test results reported in patent US11679097B2, “Combination product containing limonoid compound and biguanide compound” (ZHEJIANG YANGSHENGTANG INSTITUTE OF NATURAL MEDICATION CO., …, priority 2017, dated 2023).

Key:
Assay type in all cases: in vivo
[1] = system: db/db mice; experiment: Blood glucose and leptin in mouse model of type II diabetes (Example 2); details: single administration 0.04 g/kg per day by gavage, two weeks; for Leptin: serum, Elisa; for Blood glucose value: 1 h after last administration
Text: Effects of a Limonoid Compound, Metformin or a Combination Thereof on Blood Glucose and Leptin in a Mouse Model of Type II Diabetes In the present example, db/db mice (line name BKS.Cg-Dock7^m+/+ Lepr^db/Nju) were used to perform hypoglycemic efficacy evaluation test of animals (blood glucose level and leptin). […] Conditions for experimental feeding: as type II diabetes model mice, 6-week-old SPF-grade db/db mice were purchased from the Nanjing Model Biology Institute, and subjected to experimental feeding after 7 days of preliminary feeding. […] The experimental feed was mouse growth-stable feed (GB […]), and the daily feeding and management of the animals were under the responsibility of the animal security department, which provided the animals with sufficient padding and fresh drinking water daily. Experimental grouping: male db/db mice (20±2 g) were selected, and 18 male mice in each group were tested. […] Gavage doses: obacunone at a dose of 0.04 g/kg was gavaged per day for the obacunone group, isoobacunoic acid at a dose of 0.04 g/kg was gavaged per day for the isoobacunoic acid group, obacunone 17-β-D-glucopynoside at a dose of 0.04 g/kg was gavaged per day for the obacunone 17-β-D-glucopynoside group, metformin at a dose of 0.04 g/kg was gavaged per day for the metformin group, obacunone at a dose of 0.02 g/kg and metformin at a dose of 0.02 g/kg were simultaneously gavaged per day for the obacunone/metformin combination group, isoobacunoic acid at a dose of 0.02 g/kg and metformin at a dose of 0.02 g/kg were simultaneously gavaged per day for the isoobacunoic acid/metformin combination group, obacunone 17-β-D-glucopynoside at a dose of 0.02 g/kg and metformin at a dose of 0.02 g/kg were simultaneously gavaged per day for the obacunone 17-β-D-glucopynoside/metformin combination group, the gavage volume was 10 mL/kg, and the normal group and the model group were administrated with 10 mL/kg of distilled water. […] The data were expressed as mean and standard deviation. The data before and after were analyzed by t-test, and P<0.05 was considered statistically significant.

[2] = system: STZ mice; experiment: Blood glucose in mouse pancreatic islet β-cell injury model (Example 1); details: STZ ICR mice; single administration 0.02 g/kg per day by gavage, two weeks; 1 h after last administration
Text: Effects of a Limonoid Compound, Metformin or a Combination Thereof on Blood Glucose in a Mouse Pancreatic Islet β-Cell Injury Model In this example, a mouse pancreatic islet β-cell injury model was established by modeling ICR mice with streptozotocin (STZ) (referred to the prior art literature: Li Nan et al., Protective effect of pine pollen on kidney damage in diabetic nephropathy mice, Science and Technology Review, 2014, 32 (4/5): 95-99), and used to complete the evaluation of hypoglycemic effect in animals (this model could simulate pancreatic islet β-cell damage state of type I and type II diabetics). […] Conditions of experimental feeding: ICR mice (20±2 g), aged 6 weeks, purchased from Zhejiang Academy of Medical Sciences, and subjected to experimental feeding after 7 days of preliminary feeding. […] The experimental feed was mouse growth-stable feed (GB […]), and the daily feeding and management of the animals were under the responsibility of the animal security department, which provided the animals with sufficient padding and fresh drinking water daily. Experimental grouping: 15 male mice were randomly selected as the normal control group. […] Gavage doses: the gavage dose was 0.02 g/kg per day for the limonin group, the gavage dose was 0.02 g/kg per day for the isolimonic acid group, the gavage dose was 0.02 g/kg per day for the limonin 17-β-D-glucopyranoside group, the gavage dose of metformin was 0.02 g/kg per day for the metformin group, limonin at a dose of 0.01 g/kg and metformin at a dose of 0.01 g/kg were simultaneously gavaged per day for the limonin/metformin combination group, isolimonic acid at a dose of 0.01 g/kg and metformin at a dose of 0.01 g/kg were simultaneously gavaged per day for the isolimonic acid/metformin combination group, limonin 17-β-D-glucopyranoside at a dose of 0.01 g/kg and metformin at a dose of 0.01 g/kg were simultaneously gavaged per day for the limonin 17-β-D-glucopyranoside/metformin combination group, isolimonic acid 17-β-D-glucopyranoside at a dose of 0.01 g/kg and metformin at a dose of 0.01 g/kg were simultaneously gavaged per day for the isolimonic acid 17-β-D-glucopyranoside/metformin combination group, the gavage volume was 10 mL/kg, and the normal group and the model group were administrated with 10 mL/kg of distilled water. […] SPSS 16.0 software was used for statistical analysis. The data were expressed as mean and standard deviation. The data before and after were analyzed by t-test, and P<0.05 was considered statistically significant.

[3] = system: db/db mice; experiment: Blood glucose and insulin in mouse model of type II diabetes (Example 4); details: single administration 0.2 g/kg per day by gavage, two weeks; for Insulin: serum, Elisa
Text: Effects of a Limonoid Compound, Metformin or a Combination Thereof on Blood Glucose and Insulin in a Mouse Model of Type II Diabetes
In the present embodiment, the limonoid compound selected nomilin, deacetylnomilin, nomilin acid, deactylnomilin 17-β-D-glucopyranoside, and a nomilin single administration group, deacetylnomilin single administration group, nomilin acid single administered group, deactylnomilin 17-β-D-glucopyranoside single administration group, and combination thereof with metformin administration groups were set, respectively.
Conditions for experimental feeding: as type II diabetes model mice, 6-week-old SPF-grade db/db mice were purchased from the Nanjing Model Biology Institute, and subjected to experimental feeding after 7 days of preliminary feeding. It should be noted that the conditions for raising the mice were as follows: the temperature was 23±1° C., the humidity was 55±10%, the lights were turned on between 7 am and 7 pm (the lights were turned off at other time), and the mice were allowed to access to water and feed freely. The experimental feed was mouse growth-stable feed (GB M2118), and the daily feeding and management of the animals were under the responsibility of the animal security department, which provided the animals with sufficient padding and fresh drinking water daily.
Experimental grouping: male db/db mice (20±2 g) were selected, 18 male mice in each group were tested, and drinking bottles were sterilized weekly. The experimental groups included the normal control group (db/m, n=18), the model group (db/db, n=18), the nomilin group (db/db, n=18), the deacetylnomilin group (db/db, n=18), the nomilin acid group (db/db, n=18), the deactylnomilin 17-β-D-glucopyranoside group (db/db, n=18), the metformin group (db/db, n=18), the nomilin/metformin combination group (db/db, n=18), the deacetylnomilin/metformin combination group (db/db, n=18), the nomilin acid/metformin combination group (db/db, n=18), the deactylnomilin 17-β-D-glucopyranoside/combination group (db/db, n=18).
Gavage doses: nomilin at a dose of 0.2 g/kg was gavaged per day for the nomilin group, deacetylnomilin at a dose of 0.2 g/kg was gavaged per day for the deacetylnomilin group, nomilin acid at a dose of 0.2 g/kg was gavaged per day for the nomilin acid group, deacetylnomilin […] at a dose of 0.2 g/kg was gavaged per day for the deactylnomilin glucopyranoside group, metformin at a dose of 0.2 g/kg was gavaged per day for the metformin group, nomilin at a dose of 0.1 g/kg and metformin at a dose of 0.1 g/kg were simultaneously gavaged per day for the nomilin/metformin combination group, nomilin acid at a dose of 0.1 g/kg and metformin at a dose of 0.1 g/kg were simultaneously gavaged per day for the nomilin acid/metformin combination group, deacetylnomilin at a dose of 0.1 g/kg and metformin at a dose of 0.1 g/kg were simultaneously gavaged per day for the deacetylnomilin/metformin combination group, deactylnomilin 17-β-D-glucopyranoside at a dose of 0.1 g/kg and metformin at a dose of 0.1 g/kg were simultaneously gavaged per day for the deactylnomilin 17-β-D-glucopyranoside/metformin combination group, the gavage volume was 10 mL/kg, and the normal group and the model group were administrated with 10 mL/kg of distilled water. Two weeks later, the blood glucose values were measured by tail trimming method (Johnson's blood glucose meter) 1 h after the last administration, and serum insulin levels were measured with blood collected from orbital cavity by enzyme-linked immunosorbent assay (Elisa), and the average of each group was obtained. SPSS 16.0 software was used for statistical analysis. The data were expressed as mean and standard deviation. The data before and after were analyzed by t-test, and P<0.05 was considered statistically significant.

[4] = system: ICR mice; experiment: Body weight, triglycerides and total cholesterol in obesity mouse model (Example 6); details: high-fat feed ICR mice, single administration 0.1 g/kg per day by gavage, two weeks
Text: Effects of a Limonoid Compound, Metformin or a Combination Thereof on Body Weight, Triglycerides, and Total Cholesterol in an Obesity Mouse Model
In this example, ICR mice were used to complete the experiment for evaluation of lipid lowering and weight loss in animals (body weight, serum cholesterol, and serum triglycerides).
In this example, the limonoid compound was nomilin, and a metformin single administration group, nomilin single administration group, and metformin/nomilin combination administration groups (dose A and B groups) were set, respectively.
Conditions of experimental feeding: ICR mice, purchased from the Animal Center of Zhejiang Academy of Medical Sciences, half male and half female, body weight (20±2 g), fed with basic feed provided by the Animal Center of Zhejiang Medical Academy. It should be noted that the conditions for raising the mice were as follows: the temperature was 23±1° C., the humidity was 55±10%, the lights were turned on between 7 am and 7 pm (the lights were turned off at other time), and the mice were allowed to access to water and feed freely. The daily feeding and management of the animals were under the responsibility of the animal security department, which provided the animals with sufficient padding and fresh drinking water daily.
The ICR mice were randomly divided into the normal group and the high-fat feed group, according to body weight. The normal group was fed with ordinary feed from the beginning to the end of the experiment.
Gavage dose: nomilin at a dose of 0.1 g/kg was gavaged per day for the nomilin group, metformin at a dose of 0.1 g/kg was gavaged per day for the metformin group, nomilin at a dose of 0.05 g/kg and metformin at a dose of 0.05 g/kg were simultaneously gavaged per day for the combination dose group A, nomilin at a dose of 0.1 g/kg and metformin at a dose of 0.1 g/kg were simultaneously gavaged per day for the combination dose group B, the gavage volume was 10 mL/kg, and the normal group and the model group were administrated with 10 mL/kg of distilled water. Two weeks later, the mice were weighed, blood sampled from orbital cavity, measured to determine serum total cholesterol and triglyceride levels, and the average values of each group were obtained. SPSS 16.0 software was used for statistical analysis. The data were expressed as mean and standard deviation. The data before and after were analyzed by t-test, and P<0.05 was considered statistically significant.

Compound	Leptin [1]	Blood glucose value [1]	Blood glucose value [2]	other results
CC1(C)O[C@@H](CC(=O)O)[C@]2(C)[C@H]3CC[C@@]4(C)[C@H](c5ccoc5)OC(=O)[C@H]5O[C@]54[C@]3(C)C(=O)C[C@@H]12 [Isoobacunoic acid, isoobacunoic acid]	27.68 ± 3.25 pg/mL	14.66 ± 3.1 mmol/L		
CC1(C)O[C@H]2CC(=O)OC[C@]23[C@H]2CC[C@@](C)([C@@H](O[C@@H]4O[C@H](CO)[C@@H](O)[C@H](O)[C@H]4O)c4ccoc4)[C@@]4(O[C@@H]4C(=O)O)[C@]2(C)C(=O)C[C@@H]13 [Limonin 17-β-D-glucopyranoside, limonin 17-β-D-glucopyranoside]			18.9 ± 2.2 mmol/L	
CC1(C)O[C@H]2CC(=O)OC[C@]23[C@H]2CC[C@@]4(C)[C@H](c5ccoc5)OC(=O)[C@H]5O[C@]54[C@]2(C)C(=O)C[C@@H]13 [Limonin, limonin]			19.5 ± 1.8 mmol/L	
CC(=O)O[C@H]1CC(=O)OC(C)(C)[C@@H]2CC(=O)[C@]3(C)[C@H](CC[C@@]4(C)[C@H](c5ccoc5)OC(=O)[C@H]5O[C@]543)[C@@]12C [Nomilin, nomilin]				Insulin [3]: 8.82 ± 3.42 pg/mL; Body weight gaining rate [4]: 6.17%; Total cholesterol ([4]; serum): 3.09 ± 0.16 mmol/L; Triglycerides ([4]; serum): 1.08 ± 0.33 mmol/L
CC1(C)OC(=O)C=C[C@]2(C)[C@H]3CC[C@@]4(C)[C@H](c5ccoc5)OC(=O)[C@H]5O[C@]54[C@]3(C)C(=O)C[C@@H]12 [Obacunone, obacunone]	25.99 ± 3.92 pg/mL	12.71 ± 2.8 mmol/L		
CC1(C)OC(=O)C[C@H](O)[C@]2(C)[C@H]3CC[C@@]4(C)[C@H](c5ccoc5)OC(=O)[C@H]5O[C@]54[C@]3(C)C(=O)C[C@@H]12 [deacetylnomilin]				Insulin [3]: 8.59 ± 2.61 pg/mL
isolimonic acid			18.2 ± 3.1 mmol/L	
isolimonic acid 17-β-D-glucopyranoside			17.9 ± 2.8 mmol/L	
nomilin acid				Blood glucose value ([3]; 1 h after last administration): 11.0 ± 4.1 mmol/L
obacunone 17-β-D-glucopynoside	28.55 ± 4.00 pg/mL	13.67 ± 2.9 mmol/L		
